This is an account of results in patent US20060167098A1, “Method for the treatment of diseases linked to an accumulation of triglycerides and cholesterol” (Institut National De La Sante ET De LA Recherche Medicale …, priority 2003, published 2006).

Common to all, as to type: in vivo
Experiment [1] in a line: Plasma lipids in ob/ob mice, 6 weeks, 15 hours overnight fast. As to conditions: 100 mg/kg/day 6 weeks, fasted 15 hours. As to the method:
(§1) Plasma lipids (triglycerides, total cholesterol, phospholipids) were measured on an automatic analyser (Hitachi 717®). The commercial kits used to assess triglycerides, total cholesterol and phospholipids on this analyser were all from bioMérieux (references 61238, 61219 and 61491, respectively). Plasma non esterified fatty acids (NEFA) were assessed by using a commercial kit (Wako, reference 994-75409). Hepatic and plasma lipids were performed at the end of six weeks of treatment in animals that have been fasted for 48 hours. Triglycerides and HDL-cholesterol were also assessed after 2 months (in the fed state) or after 4 months of treatment (after an overnight fast).
(§2) Plasma HDL-cholesterol and alanine aminotransferase (ALT) were measured on an automatic analyser (Olympus AU400®) with commercial kits (Olympus Diagnostica GmbH, references OSR6187 and OSR6107, respectively).
In a second series of experiments, plasma lipids were assessed in ob/ob mice fed with a standard diet and receiving or not of 100 mg/kg/day of β-aminoisobutyric acid (BAIBA) in the drinking water during 6 weeks, but at the end of the experiment mice were fasted for only 15 hours (i.e. for an overnight fast). Samples of blood were then collected in controls mice (n=4) and in mice treated with BAIBA (n=5) for the assessment of plasma triglycerides, total cholesterol and HDL-cholesterol. In this experiment, BAIBA decreased plasma triglycerides and total cholesterol by 10 and 8%, respectively. Indeed, plasma triglycerides were 1.35±0.07 and 1.22±0.06 mmol/L, respectively in control and treated ob/ob mice, whereas plasma total cholesterol was 6.78±0.51 and 6.24±0.11 mmol/L, respectively in control and treated mice. […] Indeed, HDL-cholesterol was 4.73±0.31 and 4.92±0.24 mmol/L, respectively in control and treated mice.

A short description of experiment [2]: Plasma HDL-cholesterol and triglycerides in ob/ob mice during a 4-month treatment. The procedure: as §1, §2
In this series of experiments, plasma lipids, and especially HDL-cholesterol were assessed in ob/ob mice during a 4-month period of treatment. Mice were fed with standard diet. Ob/ob mice were treated for 4 months with β-aminoisobutyric acid, administered either at the usual dose (100 mg/kg/day) or at a higher dose (500 mg/kg/day). After two months, measurements were done in the fed state, while at the end of the treatment (i.e. after 4 months) plasma parameters were assessed after a overnight fasting period (i.e. 15 hours). One mice in the control group died between the third and fourth month of treatment.
The number of mice at the end of the experiment was 6,7 and 8, respectively in the control group and the groups treated with 100 and 500 mg/kg/day of β-aminoisobutyric acid. It is noteworthy that the animals studied in this experiment are the same than those cholesterol. Indeed, HDL-cholesterol was 3.26±0.33, 3.45±0.31 and 3.64±0.31 mmol/L, respectively in control mice and mice treated with 100 and 500 mg/kg/day of β-aminoisobutyric acid. Plasma triglycerides tended to be decreased in treated mice. Triglycerides were indeed 1.37±0.13, 1.09±0.06 and 1.25±0.17 mmol/L, respectively in control mice and mice treated with 100 and 500 mg/kg/day of β-aminoisobutyric acid.

Experiment [3] can be described thus: Plasma glucose, insulin, adiponectin and leptin in lean mice, standard diet, 6 weeks, 48 hours fast. As to conditions: 100 mg/kg/day 6 weeks, fasted 48 hours. As to the method: (§3) Plasma glucose was measured on an automatic analyser (Synchron LX20 from Beckman Coulter) with a commercial kit (kit n°472500 from Beckman).
(§4) Plasma insulin, adiponectin and leptin were measured by radioimmunoassay (RIA). Insulin was measured with the Insulin-CT kit from Cis Bio International (Gif-sur-Yvette, France), whereas plasma leptin and adiponectin were assessed with kits from Linco Research Inc. (St Charles, Mo.). Leptin was not measured in ob/ob mice since these animals are genetically leptin-deficient (Friedman J. M., Halaas J. L., 1998, Nature 395: 763-770). Results regarding insulin were expressed as recommended by kit manufacturer.
Glucose, insulin, adiponectine and leptin were assessed in lean mice fed with the standard diet and receiving (13 mice) or not (12 mice) 100 mg/kg/day of β-aminoisobutyric acid in the drinking water for 6 weeks.
At the end of the 6-weeks period of treatment, mice were submitted to a fasting period for 48 hours. Plasma glucose, insulin and adiponectin were not changed in treated mice, but a trend toward lower leptin levels was observed. Indeed, plasma leptin was 3.72±0.59 and 3.14±0.34 ng/ml, respectively in control mice (n=12) and mice treated with β-aminoisobutyric acid (n=13). Leptin is an adipokine mainly secreted by adipose tissue and its plasma levels in human and mice are highly correlated with the whole adipose tissue mass (Friedman J. M. and Hallas J. L., 1998, Nature 395: 763-770). Thus, data regarding plasma leptin are in keeping with the observation that β-aminoisobutyric acid limits body fat accumulation in lean mice.

A short description of experiment [4]: Plasma glucose, insulin and adiponectin in very young ob/ob mice (5-6 weeks old), 6 weeks. As to the method: as §3, §4
In another experiment, very young ob/ob mice (5-6 weeks old) were treated with 100 mg/kg/d of β-aminoisobutyric acid for 6 weeks and fasted for the last 48 hours. Although plasma glucose was not decreased in treated mice, there was a clear trend toward lower insulin and higher adiponectin. Indeed, plasma insulin was 56±9 and 37±5 μU/ml (p=0.08), respectively in control mice (n=7) and mice treated with β-aminoisobutyric acid (n=7). Plasma adiponectin was 8.0±1.1 and 10.9±1.2 μg/ml (p=0.08), respectively in control mice (n=7) and mice treated with β-aminoisobutyric acid (n=7).

[5] abbreviates: 100 mg/kg/day, after 4 months, fasted state.
The mark [6] stands for this setting: 100 mg/kg/day, first time point (two months, fed state).
Setting [7] is: 500 mg/kg/day, after 4 months, fasted state.
[8] abbreviates: 500 mg/kg/day, first time point (two months, fed state).
[9] abbreviates: 100 mg/kg/d 6 weeks, very young ob/ob, fasted 48 hours, p=0.08.

As to `CC(CN)C(=O)O` (racemic) [BAIBA, D,L-β-Aminoisobutyric acid], in experiment [1], the HDL-cholesterol worked out at 4.92 ± 0.24 mmol/L, the “decrease of plasma total cholesterol” value is 8%, the “decrease of plasma triglycerides” value worked out at 10% and the plasma total cholesterol turned out to be 6.24 ± 0.11 mmol/L. Besides, in experiment [1], the plasma triglycerides worked out at 1.22 ± 0.06 mmol/L. In experiment [2] (setting [5]), the HDL-cholesterol was found to be 4.01 ± 0.30 mmol/L and the plasma triglycerides is 1.34 ± 0.08 mmol/L. In experiment [2] (setting [6]), the HDL-cholesterol turned out to be 3.45 ± 0.31 mmol/L and the plasma triglycerides came to 1.09 ± 0.06 mmol/L. Further, in experiment [2] (setting [7]), the HDL-cholesterol worked out at 3.98 ± 0.31 mmol/L and the plasma triglycerides came out at 1.26 ± 0.07 mmol/L. Further, in experiment [2] (setting [8]), the HDL-cholesterol turned out to be 3.64 ± 0.31 mmol/L and the plasma triglycerides worked out at 1.25 ± 0.17 mmol/L. Besides, in experiment [3], the “plasma adiponectin vs control” value is recorded as “not changed”, the “plasma glucose vs control” value is given as “not changed”, the “plasma insulin vs control” value is “not changed” and the plasma leptin was 3.14 ± 0.34 ng/mL. The “plasma glucose vs control” value in experiment [4] (100 mg/kg/d 6 weeks, very young ob/ob, fasted 48 hours) is “not decreased”. In experiment [4] (setting [9]), this molecule returned a plasma adiponectin of 10.9 ± 1.2 µg/mL and a plasma insulin of 37±5 μU/ml. Also, in experiment [4] (obese mice), the “increase of plasma level of adiponectin” value is recorded as “around 35%”.
